{
  "source": "patent US10316323B2",
  "about": "“Microorganisms engineered to use unconventional sources of nitrogen” (priority 2013, dated 2019)",
  "system": "cyanamide",
  "experiment": "Utilization of cyanamide in rich YPD medium by S. cerevisiae strains",
  "assay_type": "cell-based",
  "settings": "10 mM cyanamide in YPD medium",
  "experimental": "Optical density of NS100 and NS101 grown in rich YPD medium with 100 μg/mL hydgromycin and with and without 10 mM cyanamide. NS100 and NS101 were grown overnight in YNB medium, and inoculated at 3.33% v/v. […] Data are averages of 3 replicate wells in a 96 well plate; 150 μL per well. 30° C., YPD medium or YPD medium with 10 mM cyanamide. Inoculation was with 5 μL of culture pregrown for 24 hrs in the YNB medium with urea as nitrogen source.",
  "data": [
    {"smiles": "N#CN", "note": "[cyanamide]", "values": [
      {"measurement": "effect of cyanamide on microbial growth", "result": "act as a deterrent for microbial growth"}
    ]}
  ]
}
